Results published in ChEMBL document CHEMBL5715260, “Selectivity Literature for EUbOPEN Chemogenomic Library” (2024).
Each block holds one molecule with its values, some of them ahead of it.

How the values were obtained:
Design in all cases: recommended concentration 1 uM
[1] = target: T1, Retinoic acid receptor RXR-alpha (Homo sapiens) (UniProt P19793); experiment: Selectivity interaction (Reporter gene assay) EUB0001141a RXRA; conditions: reference bexarotene 1 uM, Selectivity number of off-targets 0.0, Selectivity number of targets 1.0, Source Knowledge inhouse
T1 sequence (whole entry): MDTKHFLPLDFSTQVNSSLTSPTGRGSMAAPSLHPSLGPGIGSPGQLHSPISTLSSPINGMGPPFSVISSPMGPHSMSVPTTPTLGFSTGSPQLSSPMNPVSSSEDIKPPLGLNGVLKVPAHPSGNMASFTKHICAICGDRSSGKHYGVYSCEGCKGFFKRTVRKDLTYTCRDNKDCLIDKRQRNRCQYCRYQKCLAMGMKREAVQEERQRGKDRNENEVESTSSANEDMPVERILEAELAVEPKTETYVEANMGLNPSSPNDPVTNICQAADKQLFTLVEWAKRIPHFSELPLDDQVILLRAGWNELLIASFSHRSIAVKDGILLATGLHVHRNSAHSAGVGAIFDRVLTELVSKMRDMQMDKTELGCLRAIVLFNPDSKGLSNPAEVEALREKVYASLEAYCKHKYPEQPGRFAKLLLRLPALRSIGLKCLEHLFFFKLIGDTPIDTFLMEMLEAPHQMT

[2] = target: Nuclear receptor subfamily 4immunitygroup A member 1 (Homo sapiens) (UniProt P22736); experiment: Selectivity interaction (Reporter gene assay) EUB0001141a NR4A1
[3] = target: Nuclear receptor subfamily 2 group E member 1 (Homo sapiens) (UniProt Q9Y466); experiment: Selectivity interaction (Reporter gene assay) EUB0001141a NR2E1
[4] = target: Steroidogenic factor 1 (Homo sapiens) (UniProt Q13285); experiment: Selectivity interaction (Reporter gene assay) EUB0001141a NR5A1
[5] = target: T2, Hepatocyte nuclear factor 4-alpha (Homo sapiens) (UniProt P41235); experiment: Selectivity interaction (Reporter gene assay) EUB0001141a HNF4A
T2 sequence (whole entry): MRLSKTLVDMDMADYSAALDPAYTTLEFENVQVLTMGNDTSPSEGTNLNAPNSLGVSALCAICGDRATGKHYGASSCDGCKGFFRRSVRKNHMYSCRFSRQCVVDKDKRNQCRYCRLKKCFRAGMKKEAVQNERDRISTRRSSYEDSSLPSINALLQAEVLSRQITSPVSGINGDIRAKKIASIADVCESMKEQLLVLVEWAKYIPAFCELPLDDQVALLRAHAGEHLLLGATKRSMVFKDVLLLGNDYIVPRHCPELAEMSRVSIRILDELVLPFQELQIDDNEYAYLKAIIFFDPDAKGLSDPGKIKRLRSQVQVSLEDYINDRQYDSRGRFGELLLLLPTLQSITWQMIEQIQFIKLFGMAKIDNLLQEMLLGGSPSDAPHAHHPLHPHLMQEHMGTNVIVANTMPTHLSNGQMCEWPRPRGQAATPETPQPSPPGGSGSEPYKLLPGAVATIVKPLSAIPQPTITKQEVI

[6] = target: T3, Nuclear receptor subfamily 2 group C member 1 (Homo sapiens) (UniProt P13056); experiment: Selectivity interaction (Reporter gene assay) EUB0001141a NR2C1
T3 sequence (whole entry): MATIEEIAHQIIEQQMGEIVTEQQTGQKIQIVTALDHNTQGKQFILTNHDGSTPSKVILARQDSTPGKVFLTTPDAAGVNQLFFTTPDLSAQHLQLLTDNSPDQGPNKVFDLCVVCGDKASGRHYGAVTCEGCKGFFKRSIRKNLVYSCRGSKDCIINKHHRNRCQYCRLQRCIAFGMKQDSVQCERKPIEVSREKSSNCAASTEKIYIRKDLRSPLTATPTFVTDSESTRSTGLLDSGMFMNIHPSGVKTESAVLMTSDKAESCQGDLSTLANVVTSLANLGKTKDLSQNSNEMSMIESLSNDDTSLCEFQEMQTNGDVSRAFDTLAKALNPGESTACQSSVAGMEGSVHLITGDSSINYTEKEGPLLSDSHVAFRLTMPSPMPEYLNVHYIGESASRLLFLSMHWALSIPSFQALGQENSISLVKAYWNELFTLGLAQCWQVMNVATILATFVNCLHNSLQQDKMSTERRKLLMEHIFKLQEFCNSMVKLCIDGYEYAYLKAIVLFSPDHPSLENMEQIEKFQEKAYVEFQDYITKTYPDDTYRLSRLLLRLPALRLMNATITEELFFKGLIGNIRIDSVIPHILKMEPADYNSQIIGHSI

[7] = target: T4, Peroxisome proliferator-activated receptor gamma (Homo sapiens) (UniProt P37231); experiment: Selectivity interaction (Reporter gene assay) EUB0001141a PPARG; conditions: screened at recom. conc., Selectivity number of off-targets 1.0, Selectivity number of targets 19.0, Source Knowledge inhouse
T4 sequence (whole entry): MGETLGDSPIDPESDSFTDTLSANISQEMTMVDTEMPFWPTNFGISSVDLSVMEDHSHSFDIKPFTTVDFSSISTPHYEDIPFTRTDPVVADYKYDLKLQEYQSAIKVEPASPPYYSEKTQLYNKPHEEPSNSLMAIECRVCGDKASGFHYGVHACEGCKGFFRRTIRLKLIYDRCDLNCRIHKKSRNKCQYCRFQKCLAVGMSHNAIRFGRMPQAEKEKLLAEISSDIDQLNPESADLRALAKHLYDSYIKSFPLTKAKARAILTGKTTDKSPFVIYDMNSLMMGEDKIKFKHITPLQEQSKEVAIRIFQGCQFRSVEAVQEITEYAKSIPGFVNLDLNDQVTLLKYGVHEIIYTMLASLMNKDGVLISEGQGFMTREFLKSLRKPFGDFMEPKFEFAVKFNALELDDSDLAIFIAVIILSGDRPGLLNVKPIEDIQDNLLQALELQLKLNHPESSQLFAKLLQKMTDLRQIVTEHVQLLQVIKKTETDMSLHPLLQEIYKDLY

[8] = target: T5, Alpha trans-inducing protein (Human alphaherpesvirus 1) (UniProt A0A5J6DW59); experiment: Selectivity interaction (Reporter gene assay) EUB0001141a UL48
[9] = target: Nuclear receptor subfamily 2 group E member 1 (Homo sapiens) (UniProt Q9Y466); experiment: Selectivity interaction (Reporter gene assay) EUB0001136a NR2E1; conditions: screened at recom. conc., Selectivity number of off-targets 2.0, Selectivity number of targets 5.0, Source Knowledge inhouse
[10] = target: Steroidogenic factor 1 (Homo sapiens) (UniProt Q13285); experiment: Selectivity interaction (Reporter gene assay) EUB0001136a NR5A1; conditions: screened at recom. conc., Selectivity number of off-targets 2.0, Selectivity number of targets 5.0, Source Knowledge inhouse
[11] = target: Nuclear receptor ROR-alpha (Homo sapiens) (UniProt P35398); experiment: Selectivity interaction (Reporter gene assay) EUB0001136a RORA; conditions: screened at recom. conc., Selectivity number of off-targets 3.0, Selectivity number of targets 19.0, Source Knowledge inhouse
[12] = target: Nuclear receptor subfamily 4immunitygroup A member 1 (Homo sapiens) (UniProt P22736); experiment: Selectivity interaction (Reporter gene assay) EUB0001136a NR4A1
[13] = target: T3, Nuclear receptor subfamily 2 group C member 1 (Homo sapiens); experiment: Selectivity interaction (Reporter gene assay) EUB0001136a NR2C1
[14] = target: T5, Alpha trans-inducing protein (Human alphaherpesvirus 1); experiment: Selectivity interaction (Reporter gene assay) EUB0001136a UL48
[15] = target: Nuclear receptor ROR-beta (Homo sapiens) (UniProt Q92753); experiment: Selectivity interaction (Reporter gene assay) EUB0001136a RORB; conditions: screened at recom. conc., Selectivity number of off-targets 3.0, Selectivity number of targets 19.0, Source Knowledge inhouse
[16] = target: Nuclear receptor ROR-gamma (Homo sapiens) (UniProt P51449); experiment: Selectivity interaction (Reporter gene assay) EUB0001136a RORC; conditions: screened at recom. conc., Selectivity number of off-targets 3.0, Selectivity number of targets 19.0, Source Knowledge inhouse
[17] = target: T2, Hepatocyte nuclear factor 4-alpha (Homo sapiens); experiment: Selectivity interaction (Reporter gene assay) EUB0001136a HNF4A
[18] = target: Steroidogenic factor 1 (Homo sapiens) (UniProt Q13285); experiment: Selectivity interaction (Reporter gene assay) EUB0001142a NR5A1
[19] = target: Nuclear receptor subfamily 4immunitygroup A member 1 (Homo sapiens) (UniProt P22736); experiment: Selectivity interaction (Reporter gene assay) EUB0001142a NR4A1
[20] = target: T3, Nuclear receptor subfamily 2 group C member 1 (Homo sapiens); experiment: Selectivity interaction (Reporter gene assay) EUB0001142a NR2C1
[21] = target: Nuclear receptor subfamily 2 group E member 1 (Homo sapiens) (UniProt Q9Y466); experiment: Selectivity interaction (Reporter gene assay) EUB0001142a NR2E1
[22] = target: T2, Hepatocyte nuclear factor 4-alpha (Homo sapiens); experiment: Selectivity interaction (Reporter gene assay) EUB0001142a HNF4A
[23] = target: T5, Alpha trans-inducing protein (Human alphaherpesvirus 1); experiment: Selectivity interaction (Reporter gene assay) EUB0001142a UL48
[24] = target: Nuclear receptor subfamily 2 group E member 1 (Homo sapiens) (UniProt Q9Y466); experiment: Selectivity interaction (Reporter gene assay) EUB0001139a NR2E1
[25] = target: T1, Retinoic acid receptor RXR-alpha (Homo sapiens); experiment: Selectivity interaction (Reporter gene assay) EUB0001139a RXRA
[26] = target: T3, Nuclear receptor subfamily 2 group C member 1 (Homo sapiens); experiment: Selectivity interaction (Reporter gene assay) EUB0001139a NR2C1
[27] = target: T5, Alpha trans-inducing protein (Human alphaherpesvirus 1); experiment: Selectivity interaction (Reporter gene assay) EUB0001139a UL48
[28] = target: Steroidogenic factor 1 (Homo sapiens) (UniProt Q13285); experiment: Selectivity interaction (Reporter gene assay) EUB0001139a NR5A1; conditions: screened at recom. conc., Selectivity number of off-targets 1.0, Selectivity number of targets 5.0, Source Knowledge inhouse
[29] = target: T2, Hepatocyte nuclear factor 4-alpha (Homo sapiens); experiment: Selectivity interaction (Reporter gene assay) EUB0001139a HNF4A
[30] = target: Nuclear receptor subfamily 4immunitygroup A member 1 (Homo sapiens) (UniProt P22736); experiment: Selectivity interaction (Reporter gene assay) EUB0001139a NR4A1
[31] = target: Nuclear receptor subfamily 2 group E member 1 (Homo sapiens) (UniProt Q9Y466); experiment: Selectivity interaction (Reporter gene assay) EUB0001144a NR2E1
[32] = target: T2, Hepatocyte nuclear factor 4-alpha (Homo sapiens); experiment: Selectivity interaction (Reporter gene assay) EUB0001144a HNF4A
[33] = target: T1, Retinoic acid receptor RXR-alpha (Homo sapiens); experiment: Selectivity interaction (Reporter gene assay) EUB0001144a RXRA; conditions: reference bexarotene 1 uM, Selectivity number of off-targets 0.0, Selectivity number of targets 1.0, Source Knowledge inhouse
[34] = target: T5, Alpha trans-inducing protein (Human alphaherpesvirus 1); experiment: Selectivity interaction (Reporter gene assay) EUB0001144a UL48
[35] = target: Steroidogenic factor 1 (Homo sapiens) (UniProt Q13285); experiment: Selectivity interaction (Reporter gene assay) EUB0001144a NR5A1
[36] = target: T3, Nuclear receptor subfamily 2 group C member 1 (Homo sapiens); experiment: Selectivity interaction (Reporter gene assay) EUB0001144a NR2C1
[37] = target: Nuclear receptor subfamily 4immunitygroup A member 1 (Homo sapiens) (UniProt P22736); experiment: Selectivity interaction (Reporter gene assay) EUB0001144a NR4A1

Sequence of Nuclear receptor subfamily 4immunitygroup A member 1 (Homo sapiens) (P22736 whole entry): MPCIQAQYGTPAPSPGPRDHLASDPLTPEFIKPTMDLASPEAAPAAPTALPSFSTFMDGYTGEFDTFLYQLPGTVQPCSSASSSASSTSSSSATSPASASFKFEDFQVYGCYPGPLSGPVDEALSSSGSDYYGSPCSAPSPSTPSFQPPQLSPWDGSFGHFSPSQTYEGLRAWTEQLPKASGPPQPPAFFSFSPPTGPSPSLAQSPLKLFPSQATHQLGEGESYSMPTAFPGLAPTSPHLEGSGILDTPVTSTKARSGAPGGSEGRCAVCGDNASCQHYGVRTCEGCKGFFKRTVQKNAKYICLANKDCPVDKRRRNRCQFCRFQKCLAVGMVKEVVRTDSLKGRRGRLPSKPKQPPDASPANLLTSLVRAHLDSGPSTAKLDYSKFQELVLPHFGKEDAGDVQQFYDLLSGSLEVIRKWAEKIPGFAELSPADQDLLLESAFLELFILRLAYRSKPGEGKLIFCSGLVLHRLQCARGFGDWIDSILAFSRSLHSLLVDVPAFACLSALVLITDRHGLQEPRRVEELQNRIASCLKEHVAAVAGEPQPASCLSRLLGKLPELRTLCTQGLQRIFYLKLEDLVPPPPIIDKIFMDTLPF
Sequence of Nuclear receptor subfamily 2 group E member 1 (Homo sapiens) (Q9Y466 whole entry): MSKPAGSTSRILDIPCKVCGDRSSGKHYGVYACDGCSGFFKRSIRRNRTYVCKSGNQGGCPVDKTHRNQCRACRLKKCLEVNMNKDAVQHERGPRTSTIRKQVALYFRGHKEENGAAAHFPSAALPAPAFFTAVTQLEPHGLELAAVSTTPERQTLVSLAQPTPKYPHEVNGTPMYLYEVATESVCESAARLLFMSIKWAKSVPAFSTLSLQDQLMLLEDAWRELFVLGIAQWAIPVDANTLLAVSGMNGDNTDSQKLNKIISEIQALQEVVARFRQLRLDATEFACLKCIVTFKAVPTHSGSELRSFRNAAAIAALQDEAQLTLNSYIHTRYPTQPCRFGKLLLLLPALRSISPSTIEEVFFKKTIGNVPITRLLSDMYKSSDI
T5 sequence (A0A5J6DW59 as listed by the source): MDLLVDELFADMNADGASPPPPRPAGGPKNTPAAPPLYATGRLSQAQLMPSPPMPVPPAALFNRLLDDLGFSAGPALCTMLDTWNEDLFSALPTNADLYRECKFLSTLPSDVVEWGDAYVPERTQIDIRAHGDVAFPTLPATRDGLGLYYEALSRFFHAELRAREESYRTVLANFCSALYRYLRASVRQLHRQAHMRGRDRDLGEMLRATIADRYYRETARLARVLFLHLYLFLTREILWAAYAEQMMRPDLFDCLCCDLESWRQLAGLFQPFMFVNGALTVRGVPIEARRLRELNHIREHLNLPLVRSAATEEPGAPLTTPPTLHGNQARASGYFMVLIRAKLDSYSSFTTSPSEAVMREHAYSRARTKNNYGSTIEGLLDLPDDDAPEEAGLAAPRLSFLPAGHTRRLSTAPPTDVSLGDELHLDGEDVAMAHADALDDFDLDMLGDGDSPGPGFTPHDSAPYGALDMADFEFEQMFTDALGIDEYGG
Sequence of Steroidogenic factor 1 (Homo sapiens) (Q13285 whole entry): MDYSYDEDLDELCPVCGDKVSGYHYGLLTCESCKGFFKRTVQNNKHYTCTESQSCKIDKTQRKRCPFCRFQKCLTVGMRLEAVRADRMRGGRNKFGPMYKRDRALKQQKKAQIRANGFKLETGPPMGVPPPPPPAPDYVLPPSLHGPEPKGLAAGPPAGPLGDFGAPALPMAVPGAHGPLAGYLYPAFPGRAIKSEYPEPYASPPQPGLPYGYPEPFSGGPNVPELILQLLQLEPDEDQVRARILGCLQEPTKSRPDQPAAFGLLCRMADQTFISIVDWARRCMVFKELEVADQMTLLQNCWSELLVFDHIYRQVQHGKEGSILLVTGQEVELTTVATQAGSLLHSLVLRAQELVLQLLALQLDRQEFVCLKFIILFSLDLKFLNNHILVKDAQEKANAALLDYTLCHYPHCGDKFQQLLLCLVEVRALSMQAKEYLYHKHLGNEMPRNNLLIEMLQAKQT
Sequence of Nuclear receptor ROR-gamma (Homo sapiens) (P51449 whole entry): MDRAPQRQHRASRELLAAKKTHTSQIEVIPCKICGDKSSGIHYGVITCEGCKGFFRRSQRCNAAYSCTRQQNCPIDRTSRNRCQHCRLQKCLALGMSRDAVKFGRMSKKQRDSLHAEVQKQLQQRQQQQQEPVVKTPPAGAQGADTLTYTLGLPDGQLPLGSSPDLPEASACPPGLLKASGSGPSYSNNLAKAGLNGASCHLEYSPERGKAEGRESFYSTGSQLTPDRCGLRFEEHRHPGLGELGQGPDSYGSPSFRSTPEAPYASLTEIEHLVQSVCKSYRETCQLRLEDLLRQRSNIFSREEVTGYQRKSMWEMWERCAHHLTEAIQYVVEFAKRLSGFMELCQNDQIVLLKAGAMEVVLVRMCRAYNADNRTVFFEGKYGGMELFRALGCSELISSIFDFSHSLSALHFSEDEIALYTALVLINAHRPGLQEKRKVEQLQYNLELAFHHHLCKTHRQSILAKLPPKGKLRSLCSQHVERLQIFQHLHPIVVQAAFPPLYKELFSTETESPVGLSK
Sequence of Nuclear receptor ROR-beta (Homo sapiens) (Q92753 whole entry): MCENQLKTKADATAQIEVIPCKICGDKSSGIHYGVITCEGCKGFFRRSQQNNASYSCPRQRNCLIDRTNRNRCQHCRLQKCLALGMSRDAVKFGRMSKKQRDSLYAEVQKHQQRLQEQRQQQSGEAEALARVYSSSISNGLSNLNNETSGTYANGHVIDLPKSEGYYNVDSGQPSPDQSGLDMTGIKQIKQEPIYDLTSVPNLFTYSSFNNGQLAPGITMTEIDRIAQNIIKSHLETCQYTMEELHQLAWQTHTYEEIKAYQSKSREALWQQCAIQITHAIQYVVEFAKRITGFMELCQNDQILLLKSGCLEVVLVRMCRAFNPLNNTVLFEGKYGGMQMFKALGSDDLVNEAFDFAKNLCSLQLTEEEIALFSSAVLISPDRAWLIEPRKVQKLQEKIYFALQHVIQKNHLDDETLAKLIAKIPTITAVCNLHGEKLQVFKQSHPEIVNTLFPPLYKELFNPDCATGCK
Sequence of Nuclear receptor ROR-alpha (Homo sapiens) (P35398 whole entry): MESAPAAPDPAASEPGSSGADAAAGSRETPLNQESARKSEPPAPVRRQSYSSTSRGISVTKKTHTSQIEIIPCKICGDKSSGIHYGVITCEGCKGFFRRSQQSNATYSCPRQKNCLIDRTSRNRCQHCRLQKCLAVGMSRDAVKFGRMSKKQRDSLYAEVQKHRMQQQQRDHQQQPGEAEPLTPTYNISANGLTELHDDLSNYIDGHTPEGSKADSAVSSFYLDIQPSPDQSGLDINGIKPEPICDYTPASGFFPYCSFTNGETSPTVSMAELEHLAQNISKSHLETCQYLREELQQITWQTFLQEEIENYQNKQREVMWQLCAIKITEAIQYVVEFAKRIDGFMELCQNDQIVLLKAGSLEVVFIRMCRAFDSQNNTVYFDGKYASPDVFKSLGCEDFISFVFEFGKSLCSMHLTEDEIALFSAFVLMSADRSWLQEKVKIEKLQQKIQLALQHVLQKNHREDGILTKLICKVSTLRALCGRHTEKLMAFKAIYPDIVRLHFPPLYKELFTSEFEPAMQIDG

SMILES: CC(C=CC1=C(C)CCCC1(C)C)=CC=CC(C)=CC(=O)O
Remaining activity [9]: 0.42
Remaining activity [10]: 0.42
Remaining activity [11]: 0.56
Remaining activity [12]: 0.986
Remaining activity [13]: 0.503
P-value [14]: 0.000127
Remaining activity [15]: 0.531
Remaining activity [16]: 0.461
Remaining activity [17]: 0.532

SMILES: CCCCCCCN(CCc1ccc(SC(C)(C)C(=O)O)cc1)C(=O)Nc1ccc(F)cc1F
Fold activation [18]: 1
Fold activation [19]: 1
Fold activation [20]: 1.16
Remaining activity [21]: 0.821
Fold activation [22]: 1
P-value [23]: 0.0039

Second part, the molecule after the results:

Relative activation [1]: 0.895%
Remaining activity [2]: 0.875
Fold activation [3]: 0.997
Fold activation [4]: 1.12
Remaining activity [5]: 0.924
Remaining activity [6]: 0.982
Fold activation [7]: 2.82
P-value [8]: 7.52e-07
SMILES: Cc1nc(-c2ccc(C(F)(F)F)cc2)sc1C(=O)NCc1ccc(OC(C)(C)C(=O)O)cc1

Fold activation [24]: 1.12
Relative activation [25]: 0.726%
Remaining activity [26]: 0.686
P-value [27]: 0.009
Fold activation [28]: 2
Fold activation [29]: 1.47
Remaining activity [30]: 0.863
SMILES: O=C(O)Cc1cc(I)c(Oc2ccc(O)c(I)c2)c(I)c1

Fold activation [31]: 1.07
Fold activation [32]: 1.01
Relative activation [33]: 0.813%
P-value [34]: 0.0008
Fold activation [35]: 1.01
Fold activation [36]: 1.11
Remaining activity [37]: 0.821
SMILES: CCO[C@@H](Cc1ccc(OCCc2ccc(OS(C)(=O)=O)cc2)cc1)C(=O)O
